In PubChem BioAssay (NCI):
Values joined by “and” are separate entries in the source; they are usually repeats but may differ in a detail not shown here. Equal entries are not always repeated.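 Method: 48-hour compound exposure of cells in 96-well plates, five concentrations, linear interpolation of endpoints. GI50 is the concentration that inhibits growth by half. TGI marks complete inhibition of growth.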

What was measured:
Assay in all cases: growth of human tumour cells (NCI), 48 h
[1] = test system: SF-295 CNS
[2] = test system: MOLT-4 leukemia
[3] = test system: SNB-19 CNS
[4] = test system: MDA-MB-435
[5] = test system: HCT-15 colon
[6] = test system: COLO 205 colon
[7] = test system: K-562 leukemia
[8] = test system: SK-MEL-5 melanoma
[9] = test system: ACHN renal
[10] = test system: SF-539 CNS

Row | Compound | GI50 [1] [µM] | TGI [1] [µM] | GI50 [2] [µM] | TGI [2] | GI50 [3] [µM] | TGI [3] | GI50 [4] [nM] | TGI [4] [µM] | GI50 [5] [nM] | TGI [5] | GI50 [6] [µM] | TGI [6] | GI50 [7] [nM] | TGI [7] | GI50 [8] [µM] | TGI [8] | GI50 [9] [µM] | TGI [9] [µM] | GI50 [10] [µM] | TGI [10]
1 | C=CC(=O)Nc1cc(Nc2ncc(C(=O)OC(C)C)c(-c3cn(C)c4ccccc34)n2)c(OC)cc1N(C)CCN(C)C | 5.11 | 10.6 | 2.9 | 11.4 µM | 6.8 | 22.4 µM | 3000 | 7.6 | 1790 | 5.05 µM | 3.2 | > 22.2 µM | 2220 | > 23.4 µM | 1.78 | 3.21 µM | 0.0218 | 12.1 | 3.1 | 9.45 µM
2 | Nc1nc(-n2c(-c3ccccc3)nc3c(Br)cc(Br)cc3c2=O)nnc1-c1cccc(Cl)c1Cl | 11.2 | 34.8 | 25.4 | > 100 µM | 29.9 | > 100 µM | 2180 | 6.81 | 3100 | 21.9 µM | 8.88 | > 100 µM | 4700 | 7.66 µM | 4.65 | 28.3 µM | 12.2 | 40.2 | 7.8 | 40.4 µM
3 | O=C(CCNC12CC3CC(CC(C3)C1)C2)c1ccccc1 |  | 50.2 |  | 35.3 µM |  | > 100 µM |  | 65.9 |  | 40.2 µM |  | 34.9 µM |  | 36.5 µM |  | 32.7 µM |  | 88.7 |  | 40.3 µM
4 | COc1cc2c(c(OC)c1OC)-c1ccc(NNC(N)=S)c(=O)cc1[C@@H](NC(C)=O)CC2 | 0.63 | > 100 | 0.568 | > 100 µM | 0.558 | > 100 µM | 255 |  | 4230 | > 100 µM | 0.244 | 0.529 µM | 348 | > 100 µM | 0.345 | 2.52 µM | 7.19 | > 100 | 0.338 | 4.31 µM
5 | OCCN(CCO)c1ncnc2c1ncn2Cc1ccc(CCl)cc1 | 17 | 33.6 | 8.54 | 52.4 µM | 19.9 | 41.2 µM | 14500 | 29.3 | 18400 | 39.9 µM | 18.2 | 46.8 µM | 17700 | > 100 µM | 10.9 | 23.3 µM | 14.9 | 28.5 | 10.3 | 24.2 µM
6 | O=C(Nc1ccccc1)c1c(O)[nH]c(=S)[nH]c1=O |  | 108 | 40 | 53.2 µM and 96.4 µM | 40.7 | 118 µM and > 250 µM |  | 46.8 | 84300 | 72.2 µM and > 250 µM | 39.3 | 64.1 µM and 105 µM | 85300 | 114 µM and > 250 µM | 40.5 | 46 µM and 85.2 µM |  | 78.7 | 102 | 87.1 µM and > 250 µM
7 | COc1ccc(CC2c3cc4c(cc3CCN2C)OCO4)c(C=O)c1OC (centres undefined) |  | > 100 |  | > 100 µM |  | > 100 µM |  | > 100 |  | > 100 µM |  | > 100 µM |  | > 100 µM |  | > 100 µM |  | > 100 |  | > 100 µM
8 | Fc1ccc(NC(=S)SCc2ccc3c(c2)OCO3)cc1F |  | > 100 |  | 39.8 µM |  | 39.3 µM |  | 51.8 |  | 34.5 µM |  | 44.9 µM |  | 59 µM |  | 29.5 µM |  | 64.4 |  | 53.5 µM
9 | OC1CSSC1Cn1cnc2c(Nc3ccc(OCc4cccc(F)c4)c(Cl)c3)ncnc21 (centres undefined) | 3.79 | 10.4 | 0.441 | 1.38 µM | 2.14 | 7.22 µM | 350 | 0.788 | 767 | 2.16 µM | 2.83 | 8.69 µM | 604 | 1.5 µM | 0.733 | 2.88 µM | 1.7 | 5.67 | 1.89 | 7.67 µM
10 | COc1cccc(C2c3cc4c(cc3OC(C)(N3CCCC3)C2C)OCO4)c1O (centres undefined) |  | 17.5 |  | > 54.6 µM |  | > 100 µM |  | 3.82 |  | 29 µM |  | 10.4 µM |  | 18.3 µM |  | 13.3 µM |  | > 83.1 |  | 21.8 µM
11 | Cc1ccc(CN2CCC(C(=O)Nc3ccc(-c4cc5ccccc5[nH]4)cc3)CC2)o1 | 71 | > 100 | > 100 | > 100 µM | > 100 | > 100 µM | > 100000 | > 100 | > 100000 | > 100 µM | 71 | > 100 µM | > 100000 | > 100 µM | 46.6 | > 100 µM | > 100 | > 100 | > 100 | > 100 µM
12 | CCOC1Oc2ccccc2C(=O)/C1=C/Nc1ccc(C(C)=O)cc1 (centres undefined) | 23.9 | 62.3 | 15.8 | 53.3 µM | 42.2 | > 100 µM | 24300 | 61.9 | 17400 | 46.3 µM | 55.2 | > 100 µM | 16100 | 40.5 µM | 19.1 | 43 µM | 18.6 | 44 | 23.9 | 56.6 µM
13 | COC(=O)/C=C1\S/C(=N\NC(=O)c2cc3ccc2/C=C\c2ccc(cc2)/C=C\3)N(c2ccccc2)C1=O | 2.07 | 4.19 | 3.12 | > 100 µM | 1.95 | 4.25 µM | 5440 | > 100 | 1870 | 4.05 µM |  |  | 3150 | > 100 µM | 7.56 | > 100 µM | 1.78 | 3.29 | 1.79 | 3.32 µM
14 | Cn1cc(C2=C(c3c4n(c5ccccc35)CCCCC4)C(=O)NC2=O)c2ccccc21 | 1.31 | > 14.7 | 7.04 | > 25 µM | > 18.1 | > 25 µM | 700 | 3.01 | 1690 | > 25 µM | 4.56 | > 18.8 µM | 1380 | > 25 µM | 2.66 | 13.1 µM | 6.05 | > 25 | 2.86 | 15.5 µM
15 | C=C(C)C(OC)C(O)CC1(C)CC(O)CC(C)(C2CCC3OC(C4(C)CCC(Br)C(C)(C)O4)CCC3(C)O2)O1 (centres undefined) | 22.7 | 62.2 | 13.5 | 29.4 µM | 3.28 | 39 µM | 19800 | 46.3 | 26200 | > 68 µM | 21.7 | 45.5 µM | 20700 | > 68.5 µM | 13.2 | 28.4 µM | 26.4 | > 57.4 | 18.9 | 36.5 µM
16 | O=C1/C(=C/c2ccc(O)c(O)c2)CCC/C1=C\c1ccc(O)c(O)c1 |  | 22.1 |  | > 44 µM |  | 29.1 µM |  | 16.7 |  | 33.3 µM |  | > 64 µM |  | > 60.1 µM |  | 3.81 µM |  | 11 |  | 8.99 µM
17 | COc1cc2c(cc1OCCCCN1CCN(CC(=O)Nc3ccc(Cl)cc3C(=O)c3ccccc3Cl)CC1)N=CC1CCCN1C2=O (centres undefined) | 0.237 | 0.509 | 0.209 | 0.512 µM | 0.36 | 1.15 µM | 188 | 0.367 | 923 | 2.3 µM | 0.175 | 0.335 µM | 208 | 2.82 µM | 0.183 | 0.333 µM | 0.431 | 1.01 | 0.236 | 0.501 µM
18 | CCN1/C(=C\c2cc[n+](CC)c3ccccc23)C=Cc2ccccc21 | 0.223 | 2.9 | 0.207 | 4.44 µM | 0.163 | 11.7 µM | 109 | 1.16 | 2840 | 13.3 µM | 0.102 | 0.32 µM | 47.7 | 12.8 µM | 0.0605 | 0.215 µM | 1.19 | 5.88 | 0.22 | 11 µM
19 | CCC(=O)[C@H](C)[C@@H](OC(=O)[C@H](C)CC)[C@H](C)[C@H]1OC(CC)=C(C)C(=O)[C@@H]1C | 21.8 | 43.7 | 19.1 | 53.6 µM | 42.6 | > 100 µM | 21500 | 56.1 | 17000 | 42.2 µM | 14.9 | 29.3 µM | 39300 | > 100 µM | 15.3 | 28.8 µM | 30 | > 100 | 18.1 | 33.1 µM
20 | CN1CCCCC1CCN1c2ccccc2Sc2ccc(Cl)cc21 (centres undefined) | 3.32 | 13.5 | 3.2 | 10.2 µM | 6.7 | 21.5 µM | 1860 | 4.04 | 2930 | 11.7 µM | 2.24 | 4.83 µM | 2600 | 7.57 µM | 1.7 | 3.25 µM | 3.3 | 12.9 | 2.29 | 5.42 µM
21 | O=C(Nc1ccc(F)cc1)Nc1ccc(Cl)c([N+](=O)[O-])c1 | 2.27 | 7.93 | 3.13 | 92.9 µM | 3.54 | 14.3 µM | 3070 | 11.6 | 2920 | 12.1 µM | 2.48 | 6.31 µM | 3200 | > 100 µM | 1.76 | 3.22 µM | 2.96 | 11 | 3.86 | 14.3 µM
22 | COc1cccc(-c2cc(-c3cccc(NS(C)(=O)=O)c3)nc(N)c2C#N)c1O | 0.0431 | 0.752 | 0.349 | > 100 µM | 0.486 | > 100 µM | 27.5 | 0.151 | 82.4 | > 100 µM | 0.128 | 1.91 µM | 50.8 | > 100 µM | 0.0747 | 3.93 µM | 0.846 | > 100 | 0.154 | > 100 µM
23 | Nc1ccccc1C#C/C=C\C#Cc1ccccc1OC(F)(F)F | 3.03 | 11.4 | 2.91 | 24.1 µM | 2.55 | 9.72 µM | 1390 | 6.04 | 4000 | 20 µM | 5.19 | 28 µM | 2310 | > 100 µM | 4 | 15 µM | 9.15 | 50.4 | 3.5 | 13.3 µM
24 | C=CCOc1ccc2c(C)cc(=O)oc2c1C |  | 58.5 |  | > 100 µM |  | > 100 µM |  | > 100 |  | > 100 µM |  | > 100 µM |  | > 100 µM |  | > 100 µM |  | > 100 |  | > 100 µM
25 | COc1cc2c(c3oc4c(O)cccc4c(=O)c13)CC(C(C)(O)CO)O2 (centres undefined) |  | > 100 |  | 62.2 µM |  | > 100 µM |  | > 100 |  | > 100 µM |  | > 100 µM |  | > 100 µM |  | > 100 µM |  | > 100 |  | > 100 µM
26 | Cc1nc2sccn2c1-c1csc(Nc2ccccc2Cl)n1 | 1.55 | 5.98 | 3.28 | 17 µM | 10.3 | > 100 µM | 690 | 8.61 | 2640 | 32.5 µM | 5.87 | 21 µM | 586 | 17.1 µM | 2.15 | 10.3 µM | 4.52 | 62.3 | 3.2 | 16.3 µM
27 | Cc1cc(-c2nc(C(=O)Nc3cc4oc(N5CCOCC5)nc4nc3N3CC[C@@H](O)C3)co2)ccn1 | 87.5 | > 100 | 38.3 | > 100 µM | 78.8 | > 100 µM | 40700 | > 100 | 25700 | > 100 µM | 37.2 | > 100 µM | 41200 | > 100 µM | 45.7 | > 100 µM | 17.9 | 93.7 | 24 | > 100 µM
